6 molecules from patent US11702411B2, “Pyridine, pyrazine, and triazine compounds as allosteric SHP2 inhibitors” (Revolution Medicines, Inc., priority 2017, dated 2023) can be followed below.

The target of this assay is SHP2 (Homo sapiens (Human), UniProt Q06124). Description: SHP2 allosteric inhibition assay (DiFMUP prompt fluorescence, activating peptide). Conditions: 0.2 nM SHP2, 0.5 μM activating peptide, DiFMUP substrate; read-out: SHP2 Allosteric IC50. The assay is classed as biochemical. From the text: Without wishing to be bound by theory, SHP is allosterically activated through binding of bis-tyrosyl-phosphorylated peptides to its Src Homology 2 (SH2) domains. The latter activation step leads to the release of the auto-inhibitory interface of SHP2, which in turn renders the SHP2 protein tyrosine phosphatase (PTP) active and available for substrate recognition and reaction catalysis. The catalytic activity of SHP2 was monitored using the surrogate substrate DiFMUP in a prompt fluorescence assay format.
Chain of SHP2 (Q06124 whole entry): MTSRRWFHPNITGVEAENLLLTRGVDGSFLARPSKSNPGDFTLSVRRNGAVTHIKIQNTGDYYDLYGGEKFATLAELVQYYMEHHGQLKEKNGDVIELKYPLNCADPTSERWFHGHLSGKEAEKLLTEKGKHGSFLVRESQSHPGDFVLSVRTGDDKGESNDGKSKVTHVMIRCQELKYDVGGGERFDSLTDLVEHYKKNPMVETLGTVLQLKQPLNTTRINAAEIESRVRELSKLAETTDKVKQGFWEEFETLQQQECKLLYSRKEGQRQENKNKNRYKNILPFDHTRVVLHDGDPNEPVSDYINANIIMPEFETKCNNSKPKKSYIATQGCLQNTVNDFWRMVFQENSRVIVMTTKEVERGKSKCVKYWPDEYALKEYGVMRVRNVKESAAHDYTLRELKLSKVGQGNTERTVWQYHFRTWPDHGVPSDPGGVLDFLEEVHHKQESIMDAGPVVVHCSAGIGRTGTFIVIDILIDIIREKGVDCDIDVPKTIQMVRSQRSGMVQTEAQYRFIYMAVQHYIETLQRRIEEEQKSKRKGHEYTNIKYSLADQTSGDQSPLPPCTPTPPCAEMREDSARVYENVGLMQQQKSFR
The phosphatase reactions were performed at room temperature in 96-well black polystyrene plate, flat bottom, non-binding surface (Corning, Cat #3650) using a final reaction volume of 100 μL and the following assay buffer conditions: 50 mM HEPES, pH 7.2, 100 mM NaCl, 0.5 mM EDTA, 0.05% P-20, 1 mM DTT.
The inhibition of SHP2 by compounds of the present disclosure (concentrations varying from 0.00005-10 μM) was monitored using an assay in which 0.2 nM of SHP2 was incubated with 0.5 μM of Activating Peptide 1 (sequence: H2N-LN(pY)IDLDLV(dPEG8)LST(pY)ASINFQK-amide) or Activating Peptide 2 (sequence: H2N-LN(pY)AQLWHA(dPEG8)LTI(pY)ATIRRF-amide). After 30-60-minutes incubation at 25° C., the surrogate substrate DiFMUP (Invitrogen, Cat #D6567) was added to the reaction and activity was determined by a kinetic read using a microplate reader (Envision, Perkin-Elmer or Spectramax M5, Molecular Devices). The excitation and emission wavelengths were 340 nm and 450 nm, respectively. Initial rates were determined from a linear fit of the data, and the inhibitor dose response curves were analyzed using normalized IC50 regression curve fitting with control based normalization.
The IC50 is the concentration needed to halve the response being measured. With `C[C@@H]1OCC2(CCN(c3ncc(-c4c(Cl)c(Cl)cc5c4OCO5)nc3CO)CC2)[C@@H]1N` [Compound 6, {3-[(3S,4S)-4-amino-3-methyl-2-oxa-8-azaspiro[4.5]decan-8-yl]-6-(5,6-dichloro-2H-1,3-benzodioxol-4-yl)pyrazin-2-yl}methanol], the half-inhibitory concentration (IC50) is 50 to 500 nM.

Take `C[C@@H]1OCC2(CCN(c3ncc(Sc4cccc(Cl)c4Cl)nc3CO)CC2)[C@@H]1N` [Compound 30, {3-[(3S,4S)-4-amino-3-methyl-2-oxa-8-azaspiro[4.5]decan-8-yl]-6-[(2,3-dichlorophenyl)sulfanyl]pyrazin-2-yl}methanol]: the 50% inhibitory concentration (IC50) is at most 50 nM.

With `C[C@@H]1OCC2(CCN(c3ncc(Sc4ccnc(N5CC(O)C5)c4Cl)nc3CO)CC2)[C@@H]1N` [Compound 29, 1-[4-({5-[(3S,4S)-4-amino-3-methyl-2-oxa-8-azaspiro[4.5]decan-8-yl]-6-(hydroxymethyl)pyrazin-2-yl}sulfanyl)-3-chloropyridin-2-yl]azetidin-3-ol], the IC50 is at most 50 nM.

On to `C[C@@H]1OCC2(CCN(c3ncc(-c4c(O)ccc(Cl)c4Cl)nc3CO)CC2)[C@@H]1N` [Compound 8, 2-{5-[(3S,4S)-4-amino-3-methyl-2-oxa-8-azaspiro[4.5]decan-8-yl]-6-(hydroxymethyl)pyrazin-2-yl}-3,4-dichlorophenol], for which the IC50 was in the range of 50 to 500 nM.

`C[C@@H]1OCC2(CCN(c3ncc(Sc4ccnc(C#N)c4Cl)nc3CO)CC2)[C@@H]1N` [Compound 23, 4-({5-[(3S,4S)-4-amino-3-methyl-2-oxa-8-azaspiro[4.5]decan-8-yl]-6-(hydroxymethyl)pyrazin-2-yl}sulfanyl)-3-chloropyridine-2-carbonitrile]: the 50% inhibitory concentration (IC50) was at most 50 nM.

In the case of `C[C@@H]1OCC2(CCN(c3ccc(Sc4ccnc(N)c4Cl)nc3CO)CC2)[C@@H]1N` [Compound 5, [6-[(2-amino-3-chloro-4-pyridyl)sulfanyl]-3-[(3S,4S)-4-amino-3-methyl-2-oxa-8-azaspiro[4.5]decan-8-yl]-2-pyridyl]methanol], the IC50 is at most 50 nM.
